Measured values published in US11530458B2, “Methods of using multi-ligand metal complexes to perform oxidative catalytic pretreatment of lignocellulosic biomass” (Board of Trustees of Michigan State University, priority 2014, dated 2022).

Experiment: Catalytic AOP pretreatment of alkali-extracted switchgrass, then enzymatic hydrolysis (glucose yield)
Parameters: species or system Panicum virgatum
Settings: 24 hr AOP pretreatment of AESG, catalyst concentration per table
Method: Screening of various metal ligand complexes (hereinafter “catalysts”) was performed via catalytic alkaline oxidative pretreatment (AOP) pretreatment of alkali-extracted switchgrass (AESG). To prepare AESG, 80 grams of untreated switchgrass (Panicum virgatum, cv. Cave-In-Rock, hammer milled to pass a 5-mm screen, and stored at a moisture content of approximately 5%) was soaked in an aqueous solution of 5 g/L NaOH at 80° C. for 2 hrs. The weight-to-volume (w/v) solids loading of switchgrass during alkaline extraction was 10% (e.g., 10 g of biomass in 100 mL NaOH solution). […] The washed solids was recovered as AESG and air-dried for over 7 days.
[Al(III)(3,5-^tBu2-salophen)Cl] [3,5-^tBu2-salophen=N,N′-bis(3,5-di-tert-butylsalicylidene)-1,2-phenylenediamine], [Zn(II)(BPPA)Cl]Cl [BPPA=N,N-bis(6-pivaloylamido-2-pyridylmethyl)-N-(2-pyridylmethyl)amine], and [NEt4][Fe(III)(bpb)Cl2]
To study the effect of catalytic AOP pretreatment on AESG, pretreatment was performed in a 100 g/L aqueous suspension of AESG in the presence of each catalyst. […] After 24 hrs of incubation at 30° C. without mixing, the pretreated switchgrass slurry was washed using deionized water to remove the alkaline phosphate buffer.
The enzymatic digestibility of AOP-pretreated switchgrass was estimated by the yield of glucose during the enzymatic hydrolysis of AOP pretreated AESG. The percentage yield was calculated on the basis of the glucan content in AESG prior to catalytic AOP pretreatment.
For enzymatic hydrolysis, 500 μL of 1 M Na-citrate buffer (pH 5) and 40 μL of 10 mM tetracycline (Sigma-Aldrich) were added to AOP-AESG that was not dried after catalytic AOP pretreatment. Accellerase 1500 (42 FPU/mL; Danisco-Genencor, Palo Alto, Calif.) was added at 50 mg protein per gram of glucan in AESG. The total volume of the mixture (solid and liquid) was adjusted with deionized water to reach a 5% (w/v) solids concentration, and the samples were incubated at 50° C. during hydrolysis.

Fc1c(F)c(F)c(-c2c3nc(c(-c4c(F)c(F)c(F)c(F)c4F)c4ccc([nH]4)c(-c4c(F)c(F)c(F)c(F)c4F)c4nc(c(-c5c(F)c(F)c(F)c(F)c5F)c5ccc2[nH]5)C=C4)C=C3)c(F)c1F.[Fe+3] [Fe(III)-tetrakis-pentafluorophenyl)-porphyrin]
Glucose yield of enzymatic hydrolysis (% of theoretical maximum) (pH 3, 24 hrs hydrolysis): 29.18 ± 0.33 % of theoretical maximum
Glucose yield of enzymatic hydrolysis (% of theoretical maximum) (pH 3, 72 hrs hydrolysis): 35.38 ± 0.43 % of theoretical maximum
Glucose yield of enzymatic hydrolysis (% of theoretical maximum) (pH 11, 24 hrs hydrolysis): 35.37 ± 0.45 % of theoretical maximum
Glucose yield of enzymatic hydrolysis (% of theoretical maximum) (pH 11, 72 hrs hydrolysis): 40.25 ± 0.19 % of theoretical maximum

C1=Cc2nc1c(-c1ccccc1)c1ccc([nH]1)c(-c1ccccc1)c1nc(c(-c3ccccc3)c3ccc([nH]3)c2-c2ccccc2)C=C1.[Fe+3] [Fe(III)-tetraphenylporphyrin]
Glucose yield of enzymatic hydrolysis (% of theoretical maximum) (pH 3, 24 hrs hydrolysis): 31.55 ± 1.6 % of theoretical maximum
Glucose yield of enzymatic hydrolysis (% of theoretical maximum) (pH 3, 72 hrs hydrolysis): 42.13 ± 1.89 % of theoretical maximum
Glucose yield of enzymatic hydrolysis (% of theoretical maximum) (pH 11, 24 hrs hydrolysis): 36.98 ± 1.3 % of theoretical maximum
Glucose yield of enzymatic hydrolysis (% of theoretical maximum) (pH 11, 72 hrs hydrolysis): 42.14 ± 0.63 % of theoretical maximum

CC(C)(C)c1cc(C=Nc2ccccc2N=Cc2cc(C(C)(C)C)cc(C(C)(C)C)c2[O-])c([O-])c(C(C)(C)C)c1.[Al+3].[Cl-] [[Al(III)(3,5-^tBu2-salophen)Cl]]
Glucose yield of enzymatic hydrolysis (% of theoretical maximum) (pH 10, 24 hrs hydrolysis): 28.90 ± 0.17 % of theoretical maximum
Glucose yield of enzymatic hydrolysis (% of theoretical maximum) (pH 11, 24 hrs hydrolysis): 29.80 ± 0.25 % of theoretical maximum
Glucose yield of enzymatic hydrolysis (% of theoretical maximum) (pH 13, 24 hrs hydrolysis): 34.19 ± 0.41 % of theoretical maximum

CC[N+](CC)(CC)CC.O=C([N-]c1ccccc1[N-]C(=O)c1ccccn1)c1ccccn1.[Cl-].[Cl-].[Fe+3] [[NEt4][Fe(III)(bpb)Cl2]]
Glucose yield of enzymatic hydrolysis (% of theoretical maximum) (pH 9, 24 hrs hydrolysis): 27.07 ± 0.6 % of theoretical maximum
Glucose yield of enzymatic hydrolysis (% of theoretical maximum) (pH 9, 72 hrs hydrolysis): 34.27 ± 0.21 % of theoretical maximum
Glucose yield of enzymatic hydrolysis (% of theoretical maximum) (pH 10, 24 hrs hydrolysis): 25.54 ± 0.21 % of theoretical maximum
Glucose yield of enzymatic hydrolysis (% of theoretical maximum) (pH 10, 72 hrs hydrolysis): 31.97 ± 0.13 % of theoretical maximum
Glucose yield of enzymatic hydrolysis (% of theoretical maximum) (pH 11, 24 hrs hydrolysis): 27.44 ± 1.54 % of theoretical maximum
Glucose yield of enzymatic hydrolysis (% of theoretical maximum) (pH 11, 72 hrs hydrolysis): 31.54 ± 0.23 % of theoretical maximum

CC(C)(C)C(=O)Nc1cccc(CN(Cc2ccccn2)Cc2cccc(NC(=O)C(C)(C)C)n2)n1.[Cl-].[Cl-].[Zn+2] [[Zn^II(BPPA)Cl]Cl, [Zn(II)(BPPA)Cl]Cl]
Glucose yield of enzymatic hydrolysis (% of theoretical maximum) (pH 10, 24 hrs hydrolysis): 26.43 ± 0.31 % of theoretical maximum
Glucose yield of enzymatic hydrolysis (% of theoretical maximum) (pH 11, 24 hrs hydrolysis): 27.33 ± 0.62 % of theoretical maximum
Glucose yield of enzymatic hydrolysis (% of theoretical maximum) (pH 13, 24 hrs hydrolysis): 33.36 ± 0.3 % of theoretical maximum

Fe(III)-phthalocyanine
Glucose yield of enzymatic hydrolysis (% of theoretical maximum) (pH 3, 24 hrs hydrolysis): 30.91 ± 0.24 % of theoretical maximum
Glucose yield of enzymatic hydrolysis (% of theoretical maximum) (pH 3, 72 hrs hydrolysis): 36.80 ± 2.84 % of theoretical maximum
Glucose yield of enzymatic hydrolysis (% of theoretical maximum) (pH 11, 24 hrs hydrolysis): 34.21 ± 0.23 % of theoretical maximum
Glucose yield of enzymatic hydrolysis (% of theoretical maximum) (pH 11, 72 hrs hydrolysis): 38.75 ± 1.52 % of theoretical maximum
